{"source": "patent US20230190967A1", "about": "“Method and Composition for Evaluating Response to Neurodegenerative Disease Treatment Agent” (GENUV INC., priority 2020, published 2023)", "key": {"[1]": {"tested_on": "Map2, a dendrite marker", "test": "Immunohistochemical analysis of Map2 (dendrite/neurite marker) in brain tissue of 5XFAD mice", "assay_type": "in vivo, mouse", "conditions": "8-month-old 5XFAD mice, FIGS. 8 and 9", "from_the_text": "(§1) Age-matched wild-type (WT) mice were orally administered vehicle for 2.5 months. Blood was obtained from all the mice at the age of 8 months after completion of the treatment and collected in EDTA tubes, which were centrifuged to obtain plasma. Mice were sacrificed by the perfusion method, and the brain cortex was extracted and immediately frozen.\nThe sections were counterstained with DAPI."}, "[2]": {"tested_on": "Osteopontin (OPN)", "test": "ELISA of plasma osteopontin in 5XFAD mice", "assay_type": "in vivo, mouse", "conditions": "for Decrease of plasma osteopontin (OPN) level vs. 5XFAD-vehicle group: 8-month-old 5XFAD", "from_the_text": "as §1\n(§2) Blood was obtained from the 13-month-old mice after completion of the treatment and collected in EDTA tubes, which were centrifuged to obtain plasma. Mice were sacrificed, and the brain cortex was extracted, washed with PBS, and immediately frozen.\n(§3) ELISA was performed to detect changes in the level of biomarkers in the plasma of 5XFAD mice. The following ELISA kits were used for each of the biomarkers: • Neurofilament-light chain (NfL): Cloud-Clone, SEE038Mu • Cathepsin B (CTSB): Novus, NBP2-67254 • Osteopontin (OPN): LS bio, LS-F26046-1 • Synaptotagmin-1 (Syt1): LS bio, LS-F30963-1 • Apolipoprotein-E (ApoE): Novus, NBP2-66739\n(§4) NfL, CTSB and ApoE were detected by colorimetric methods. OPN and Syt1 were detected by chemiluminescent methods. ELISA was performed according to the ELISA kit manufacturer's instructions."}, "[3]": {"tested_on": "8-month-old 5XFAD mouse brain cortex", "experimental": "as §1\n(§5) Single-cell RNA sequencing analysis was performed on the 8-month-old 5XFAD mouse and wild type mouse brain cortex samples. The cortex was microdissected in HABG (Hibernate A buffer including B27 supplement and glutamine) media and digested in papain solution for 20 min at 37° C. (Brewer et al (2007). Isolation and culture of adult neurons and neurospheres. Nat Protoc 2, 1490-1498). Using a Pasteur pipette, the digested cortex was gently triturated. Cells were isolated by the density gradient method using OptiPrep (Sigma-Aldrich, D1556).\nThe cell suspension was diluted with Drop-seq buffer, and Drop-seq was performed using the Chromium™ Single Cell 3′ v2 Reagent Kit (Campbell et al. (2017). A molecular census of arcuate hypothalamus and median eminence cell types. Nat Neurosci 20, 484-496). Libraries were sequenced on the Illumina HiSeq X Ten, and Read 1 was 16 bp (10×™ Barcode and 10 bp UMI). Cells with either very low or too high mRNA content (to only include: 200<gene number <3,000) or a high fraction of mitochondrial encoded transcripts (>20%) were filtered out. Using 20,056 cells, raw sequence data were aligned to the mouse (mm10) genome, and analyses including PCA, t-SNE, and graph-based clustering were performed with the Cell Ranger Single-Cell software.\nIn addition to the microglial cells, the other brain cell types were also analyzed for the genes differentially expressed between the experimental groups."}, "[4]": {"tested_on": "Spp1 mRNA", "test": "qRT-PCR of Spp1 mRNA expression in brain tissue of 5XFAD mice", "assay_type": "in vivo, mouse", "conditions": "0.1 mg/kg/day", "from_the_text": "as §1, §2\n(§6) In addition, qRT-PCR was performed to measure the mRNA expression level in the brain tissue of each animal. […] Reverse transcription was performed using M-MLV reverse transcriptase (Invitrogen, 28025013). qRT-PCR was performed using the SYBRTM Green PCR master mix (Thermo, 4367659) according to the manufacturer's instructions. Results were expressed relative to the housekeeping gene GAPDH (Glyceraldehyde-3-Phosphate Dehydrogenase)."}, "[5]": {"tested_on": "Neurofilament-light chain (NfL)", "test": "ELISA of plasma neurofilament light chain in 5XFAD mice", "assay_type": "in vivo, mouse", "from_the_text": "as §1, §2, §3, §4"}, "[6]": {"tested_on": "Apolipoprotein-E (ApoE)", "test": "ELISA of plasma apolipoprotein-E in 5XFAD mice", "assay_type": "in vivo, mouse", "conditions": "8-month-old 5XFAD", "experimental": "as §1, §3, §4"}, "[7]": {"tested_on": "8-month-old 5XFAD mouse brain cortex", "test": "Single cell RNA sequencing of brain cortex: number of single cells analyzed per cell type", "assay_type": "in vivo", "conditions": "8-month-old 5XFAD mice cortex, trametinib 0.1 mg/kg/day", "experimental": "as §1, §5\nThe cell suspension was diluted with Drop-seq buffer, and Drop-seq was performed using the Chromium™ Single Cell 3′ v2 Reagent Kit (Campbell et al. (2017). A molecular census of arcuate hypothalamus and median eminence cell types. Nat Neurosci 20, 484-496). Libraries were sequenced on the Illumina HiSeq X Ten, and Read 1 was 16 bp (10×™ Barcode and 10 bp UMI). […]"}, "[8]": {"tested_on": "Cathepsin B (CTSB)", "from_the_text": "as §1, §2, §3, §4"}, "[9]": {"tested_on": "H2-Ob mRNA", "test": "qRT-PCR of H2-Ob mRNA expression in brain cortex of 5XFAD mice", "assay_type": "in vivo, mouse", "conditions": "8-month-old 5XFAD mice brain cortex, 0.1 mg/kg/day trametinib, FIG. 11", "experimental": "as §1, §6"}, "[10]": {"tested_on": "C57BL/6 mice whole brain", "test": "Whole cell RNA sequencing of whole brain of C57BL/6 mice after 1, 2, 3, or 4 weeks of administration", "assay_type": "in vivo, mouse", "conditions": "0.1 mg/kg/day", "experimental": "Mice were sacrificed after 1, 2, 3, or 4 weeks of administration. Whole brain was extracted.\nWhole cell RNA sequencing analysis was performed with the RNA isolated from the whole brain of the mice to observe the change of genes in the brain during the administration period.\nThe whole cell RNA sequencing was performed as follows. RNA was isolated from the whole brains of the mice, and cDNA libraries for RNA sequencing were prepared using the TruSeq Stranded mRNA Prep Kit (Illumina, San Diego, Calif.) according to the manufacturer's guidelines. The libraries were sequenced on the Illumina Nextseq500 platform, and the reads were mapped to the reference Mouse mm10 genome using Tophat v2.0.13. After read mapping, transcript assembly was performed using StringTie program. The expression profile for each sample was obtained, and RPKM (Read per Kilobase per million mapped reads) values were calculated based on the transcripts/genes. To compare the gene expression levels in each experimental group, DEG (Differentially Expressed Genes) were analyzed using DESeq2. As a result, 196 genes satisfying |fc|>=2, p value <0.05 in at least one comparison set were extracted. The extracted gene information was checked in KEGG database (http://www.kegg.jp/kegg/pathway.html) to identify which pathway the genes belong to. Genes showing at least a twofold increase in the expression level in the corresponding pathway were marked bold, and those showing at least a twofold decrease were marked italic on the right side of the heatmap (FIG. 10)."}, "[11]": {"tested_on": "Synaptotagmin-1 (Syt1)", "test": "ELISA of plasma synaptotagmin-1 in 5XFAD mice", "assay_type": "in vivo, mouse", "conditions": "8-month-old 5XFAD", "experimental": "as §1, §3, §4"}, "[12]": {"conditions": "M (microglia), 8-month-old 5XFAD cortex, 0.1 mg/kg/day"}, "[13]": {"conditions": "microglia cluster, 5XFAD-Tra 0.1 group"}, "[14]": {"conditions": "8-month-old 5XFAD, trametinib 0.1 mg/kg/day, statistically significant"}, "[15]": {"conditions": "C57BL/6 mice whole brain, at least twofold"}}, "note": "“Also recorded” adds a separate entry of the source. Like-named read-outs stand apart in the source and are kept apart here."}
{"smiles": "CC(=O)Nc1cccc(-n2c(=O)n(C3CC3)c(=O)c3c(Nc4ccc(I)cc4F)n(C)c(=O)c(C)c32)c1", "note": "[trametinib, N-(3-{3-cyclopropyl-5-[(2-fluoro-4-iodophenyl)amino]-6,8-dimethyl-2,4,7-trioxo-3,4,6,7-tetrahydropyrido[4,3-d]pyrimidin-1(2H)-yl}phenyl)acetamide]", "values": [{"measurement": "Neurite marker (Map2) in the brain tissue", "setting": "[1]", "result": "increased"}, {"measurement": "Decrease of plasma osteopontin (OPN) level vs. 5XFAD-vehicle group", "setting": "[2]; trametinib 0.05 mg/kg/day", "result": 40, "unit": "%"}, {"measurement": "Decrease of plasma osteopontin (OPN) level vs. 5XFAD-vehicle group", "setting": "[2]; trametinib 0.1 mg/kg/day", "result": 43.9, "unit": "%"}, {"measurement": "Decrease of plasma osteopontin (OPN) level vs. vehicle group", "setting": "[2]; 13-month-old 5XFAD, trametinib 0.1 mg/kg/day 1 month, statistically significant", "result": 61.5, "unit": "%"}, {"measurement": "Log2(5XFAD-Tra0.1/5XFAD-Veh) ApoE (Apolipoprotein E)", "setting": "[3]; Astro (Astrocyte), 8-month-old 5XFAD cortex, 0.1 mg/kg/day", "result": "−0.5177"}, {"measurement": "Log2(5XFAD-Tra0.1/5XFAD-Veh) CTSB (Cathepsin B)", "setting": "[3]; Endo (Endothelial), 8-month-old 5XFAD cortex, 0.1 mg/kg/day", "result": 0.8182}, {"measurement": "Log2(5XFAD-Tra0.1/5XFAD-Veh) CTSE (Cathepsin E)", "setting": "[3]; [12]", "result": "−0.543"}, {"measurement": "Log2(5XFAD-Tra0.1/5XFAD-Veh) Spp1 (Osteopontin)", "setting": "[3]; [12]", "result": "−0.646"}, {"measurement": "Decrease of Spp1 expression compared to the 5XFAD-vehicle group", "setting": "[3]; [13]", "result": "at least 1.5 fold"}, {"measurement": "Decrease of Wfdc17 expression compared to the 5XFAD-vehicle group", "setting": "[3]; [13]", "result": "at least 1.5 fold"}, {"measurement": "Expression of the Spp1 gene (in words)", "setting": "[3]; [13]", "result": "decreased"}, {"measurement": "Increase of Acta2 expression compared to the 5XFAD-vehicle group", "setting": "[3]; [13]", "result": "at least 1.5 fold"}, {"measurement": "Increase of Ptgds expression compared to the 5XFAD-vehicle group", "setting": "[3]; [13]", "result": "at least 1.5 fold"}, {"measurement": "Increase of Rpl9-ps6 expression compared to the 5XFAD-vehicle group", "setting": "[3]; [13]", "result": "at least 1.5 fold"}, {"measurement": "Increase of Rpl10-ps3 expression compared to the 5XFAD-vehicle group", "setting": "[3]; [13]", "result": "at least 1.5 fold"}, {"measurement": "Spp1 level (mRNA) compared with the 5XFAD-vehicle group", "setting": "[4]; 8-month-old 5XFAD mice cortex, FIG. 1A", "result": "decreasing trend"}, {"measurement": "Spp1 level (mRNA) compared with the 5XFAD-vehicle group", "setting": "[4]; 13-month-old 5XFAD mice brain, FIG. 1B", "result": "decreasing trend"}, {"measurement": "Decrease of plasma neurofilament light chain (NfL) level vs. 5XFAD-vehicle group", "setting": "[5]; [14]", "result": 47.4, "unit": "%"}, {"measurement": "Plasma NfL levels, vehicle vs. trametinib-administered groups", "setting": "[5]; 13-month-old 5XFAD, trametinib 0.1 mg/kg/day 1 month, FIG. 7B", "result": "did not show a significant difference"}, {"measurement": "Decrease of plasma apolipoprotein-E (APOE) level vs. 5XFAD-vehicle group", "setting": "[6]; trametinib 0.1 mg/kg/day", "result": 34.3, "unit": "%"}, {"measurement": "Decrease of plasma apolipoprotein-E (APOE) level vs. 5XFAD-vehicle group", "setting": "[6]; trametinib 0.2 mg/kg, statistically significant", "result": 58.9, "unit": "%"}, {"measurement": "Microglial population compared to the 5XFAD-vehicle group", "setting": "[7]", "result": "decrease"}, {"measurement": "Decrease of plasma cathepsin B level vs. 5XFAD-vehicle group", "setting": "[8]; 8-month-old 5XFAD, trametinib 0.05 mg/kg/day", "result": 62.4, "unit": "%"}, {"measurement": "Decrease of plasma cathepsin B level vs. 5XFAD-vehicle group", "setting": "[8]; [14]", "result": 99, "unit": "%"}, {"measurement": "Decrease of plasma cathepsin B level vs. 5XFAD-vehicle group", "setting": "[8]; 13-month-old 5XFAD, trametinib 0.1 mg/kg/day 1 month, FIG. 6", "result": 35, "unit": "%"}, {"measurement": "H2-Ob mRNA expression level compared to the 5XFAD-vehicle group", "setting": "[9]", "result": "significantly increased"}, {"measurement": "Genes showing an increase in the expression level in weeks 1 and 2", "setting": "[10]; [15]", "result": "Oprm1, Glp1r, Grin2a, Grin2b, Glra3,; also recorded: Glra1, Cnr2, Grin3b, Gabrr2, Ksr2, Cdh1,; also recorded: Tead4, Ctnna3, PDE11a, Nt5cla"}, {"measurement": "Genes showing an increase in the expression level in weeks 3 and 4", "setting": "[10]; [15]", "result": "Plin4, H2-Ob, Hspa1l, HSPa1b, Hnmpa1,; also recorded: Nos2, Rab5c"}, {"measurement": "Genes showing a decrease in the expression level in weeks 1 and 2", "setting": "[10]; [15]", "result": "Pla2g4c, C1s2"}, {"measurement": "Genes showing a decrease in the expression level in weeks 3 and 4", "setting": "[10]; [15]", "result": "Efna4, Scd4, Cd36, Ppp3r2"}, {"measurement": "H2-Ob level (whole brain RNA sequencing)", "setting": "[10]; C57BL/6 mice, 3 and 4 weeks after the administration", "result": "remarkably increased"}, {"measurement": "Decrease of plasma synaptotagmin-1 (Syt1) level vs. 5XFAD-vehicle group", "setting": "[11]; trametinib 0.05 mg/kg/day", "result": 26.2, "unit": "%"}, {"measurement": "Decrease of plasma synaptotagmin-1 (Syt1) level vs. 5XFAD-vehicle group", "setting": "[11]; trametinib 0.1 mg/kg/day", "result": 41.0, "unit": "%"}]}
